Results: patent publication US9783513B2, “STAT3 inhibitors and their anticancer use” (Ohio State Innovation Foundation, priority 2012, dated 2017)
Entries after “also recorded” stand apart in the source; their conditions may differ. Like-named read-outs stand apart in the source and are kept apart here.

What was measured:
HUVEC spheroids = assay: 3D in vitro angiogenesis (spheroid sprouting) assay; type: cell-based, human; conditions: 300 nM
Experimental: The Endothelial Tube Formation Assay (CBA200, Cell Biolabs Inc., San Diego, Calif., USA) was used in addition to the HUVEC proliferation assay. The ECM gel was thawed at 4° C. and mixed to homogeneity using cooled pipette tips. Cell culture plates (96-well) were bottom-coated with a thin layer of ECM gel (50 μl/well), which was left to polymerize at 37° C. for 60 min. HUVEC (2-3×10^4 cells) were stimulated with VEGF in 150 μl medium and added to each well on the solidified ECM gel. Culture medium was added to each well in the presence or absence of LY5. The plates were incubated at 37° C. for 12-18 hours and the endothelial tubes were quantified using a fluorescent microscope after staining with Calcein AM. Three microscope fields were selected at random and photographed. Tube forming ability was quantified by counting the total number of cell clusters and branches under a 4× objective and […] per well. The results are expressed as mean fold change of branching compared with the control groups. Each experiment was performed at least three times. The 3D in vitro angiogenesis assay was performed essentially as described by manufactures instructions (promo cell). […] The spheroids were photographed after 24 hours and sprout formation assessed as described.

AKT and ERK 1/2 = assay: Western blot, AKT and ERK1/2 phosphorylation; type: cell-based, human
Experimental: RH30 cells were treated with DMSO, LY-5 (0.25-1 μM) and LY-3 (0.5-2.5 μM) prepared as a 20 mM stock solution in sterile DMSO at 60% to 80% confluence in the presence of 10% FBS for 24 hours. The sarcoma cell line EW8 was treated with DMSO and LY-5 (0.5-2.5 μM) prepared as a 20 mM stock solution in sterile DMSO at 60% to 80% confluence in the presence of 10% FBS for 24 hours. MCF-7 cells and DAOY cells were treated with DMSO, 25-50 ng/ml of IL-6, LY-5 (0.25-1 μM) or LY-3 (0.5-2.5 μM) prepared as a 20 mM stock solution in sterile DMSO, protein expressions of P-STAT3 (Tyr705) and STAT3 were tested. DAOY cells were treated with DMSO, 50 ng/ml of IFN-γ, LY-5 (1-5 μM) prepared as a 20 mM stock solution in sterile DMSO, protein expressions of P-STAT3 (Tyr705) and STAT3 were tested. […]
The cells were harvested and lysed in cold radioimmunoprecipitation assay (RIPA) lysis buffer containing […] and phosphatase inhibitor cocktail, and were subjected to SDS-PAGE. […] Membranes were analyzed using Enhanced Chemiluminescence Plus reagents and scanned with the Storm Scanner (Amersham Pharmacia Biotech, Inc., Piscataway, N.J.).
MCF-7 breast cancer cells were seeded in 10 cm plates and allowed to adhere overnight. […] The cells were harvested after 30 minutes and analyzed by Western blot.

[1] = system: human sarcoma cell line U2OS; assay: Cell viability (MTT) assay, U2OS; type: cell-based; conditions: Homo sapiens
Experimental: Human sarcoma cell lines (RD2, RH30, U2OS) were seeded in 96-well plates at a density of 3,000 cells per well. The cells were incubated at 37° C. for a period of 24 hours. Different concentrations of LY-5 (0.1-10 μM), LY-3 (0.1-20 μM), and LLL12 (0.1-10 μM) prepared as a 20 mM stock solution in sterile DMSO were added in triplicate to the plates in the presence of 10% FBS. 3-(4,5-Dimethylthiazolyl)-2, 5-diphenyltetrazoliumbromide (MTT) was added to evaluate cell viability. The absorbance was read at 595 nm. IC50 values were determined using SigmaPlot 9.0 Software (Systat Software, Inc., San Jose, Calif.).
Alternatively, cells were seeded in 96-well plates in triplicate at a density of 3,000 cells per well and given 24 hours to adhere. Cells were then treated with varying concentrations of the inhibitors in the presence of 10% FBS. The cells were incubated for 72 hours at 37° C. 25 μl of MTT dye (Sigma, #M5655) was added to each sample and incubated for 3.5 hours. After this, 100 μl of N,N-dimethylformamide (Sigma, #D4551) solubilization solution was added to each well. The absorbance at 450 nm was read the following day. Half-Maximal inhibitory concentrations (IC50) were determined using Sigma Plot 9.0 software (Systat Software Inc.).
Table 6 below lists specific compounds as well as experimentally determined STAT3 activity in a cell-based assay. The STAT3 activity was determined using the cell viability assays with human sarcoma cell line U2OS as described above. The compounds in Table 6 were synthesized with methods identical or analogous to those described herein. The compound reference numbers (“Ref. No.”) in Table 6 correspond to the compound numbers used in Table 3.

[2] = system: IL-6 induced STAT3 phosphorylation; assay: Western blot, IL-6 induced STAT3 phosphorylation; type: cell-based, human
Experimental: RH30 cells were treated with DMSO, LY-5 (0.25-1 μM) and LY-3 (0.5-2.5 μM) prepared as a 20 mM stock solution in sterile DMSO at 60% to 80% confluence in the presence of 10% FBS for 24 hours. The sarcoma cell line EW8 was treated with DMSO and LY-5 (0.5-2.5 μM) prepared as a 20 mM stock solution in sterile DMSO at 60% to 80% confluence in the presence of 10% FBS for 24 hours. MCF-7 cells and DAOY cells were treated with DMSO, 25-50 ng/ml of IL-6, LY-5 (0.25-1 μM) or LY-3 (0.5-2.5 μM) prepared as a 20 mM stock solution in sterile DMSO, protein expressions of P-STAT3 (Tyr705) and STAT3 were tested. DAOY cells were treated with DMSO, 50 ng/ml of IFN-γ, LY-5 (1-5 μM) prepared as a 20 mM stock solution in sterile DMSO, protein expressions of P-STAT3 (Tyr705) and STAT3 were tested. MCF-7 cells were treated with DMSO, 50 ng/ml of OSM, LY-5 (1-2.5 μM) or LLL12 (1-2.5 μM) prepared as a 20 mM stock solution in sterile DMSO, protein expressions of P-STAT3 (Tyr705), P-STAT1, P-STAT5, P-ERK (T202/Y204), P-AKT, STAT3 and STAT1 were tested.
The cells were harvested and lysed in cold radioimmunoprecipitation assay (RIPA) lysis buffer containing […] and phosphatase inhibitor cocktail, and were subjected to SDS-PAGE. Then they were transferred to PVDF membrane. Membranes were probed with primary antibodies (1:1,000) and horseradish peroxidase (HRP)-conjugated secondary antibody (1:10,000) (Cell Signaling Technology, Beverly, Mass.). Membranes were analyzed using Enhanced Chemiluminescence Plus reagents and scanned with the Storm Scanner (Amersham Pharmacia Biotech, Inc., Piscataway, N.J.).
MCF-7 breast cancer cells were seeded in 10 cm plates and allowed to adhere overnight. The following day, the cells were serum-starved. The cells were then left untreated or were treated with LY-5 (0.25-1 μM) and LY-3 (0.5-2.5 μM) prepared as a 20 mM stock solution in sterile DMSO or DMSO. After 5 hours, the untreated and LY-5 and LY-3 treated cells were stimulated by IL-6 (25 ng/mL). The cells were harvested after 30 minutes and analyzed by Western blot. DAOY medulloblastoma cancer cells were seeded in 10 cm plates and allowed to adhere overnight. The following day, the cells were serum-starved. The cells were then left untreated or were treated with LY-5 (1-5 μM) prepared as a 20 mM stock solution in sterile DMSO or DMSO. After 2 hours, the untreated and LY-5 treated cells were stimulated by IL-6 (25 ng/mL). The cells were harvested after 30 minutes and analyzed by Western blot.

NS(=O)(=O)c1cccc2c1C(=O)C=C(Nc1cccnc1)C2=O [LY-5, 5,8-dioxo-6-(pyridin-3-ylamino)-5,8-dihydronaphthalene-1-sulfonamide]
VEGF induced sprouting from preformed HUVEC spheroids (HUVEC spheroids): reduce HUVEC vascular sprout length
VEGF induced sprouting from preformed HUVEC spheroids (HUVEC spheroids; listed as LY5): impaired angiogenic sprouting
selectivity of phosphorylation inhibition, STAT3 over AKT and ERK 1/2 (AKT and ERK 1/2; MCF-7, OSM 50 ng/mL): selectivity inhibit phosphorylation of STAT3 over AKT and ERK 1/2
phosphorylation of the kinase ERK1/2 (AKT and ERK 1/2; sarcoma cells, FIG. 1-2): not found to inhibit
IC50 ([1]; Table 2, cell line not given, read-out: IC50): 500 nM
IC50 ([1]; Table 7, read-out: IC50 U2OS): 520 nM
IC50 ([1]; Table 8, read-out: IC50 values vs. cell lines, U2OS): 520 nM
IL-6 induced STAT3 phosphorylation ([2]; DAOY, up to 5 μM, 2 h): inhibits; also recorded: blocked the stimulation
IL-6 induced STAT3 phosphorylation ([2]; DLD1, 0-5 μM, 2 h, IL-6 50 ng/mL): inhibits
IL-6 induced STAT3 phosphorylation ([2]; MCF-7, LY-3 0.5-2.5 μM, LY-5 0.25-1 μM, 5 h, IL-6 25 ng/mL): inhibit; also recorded: blocked the stimulation
IL-6 induced STAT3 phosphorylation at Y705 ([2]; SJSA, 0-2.5 μM, 3 h): inhibits
